Measured values taken from paper PMC12396409, “Screening and hit evaluation of a microbial metabolite library against the pathogenic Plasmodium falciparum and Toxoplasma gondii parasites” (International Journal for Parasitology: Drugs and Drug …, 2025).
Read-outs that look alike come from different tables or passages of the source.

Experiments:
[1] = tested on: P. falciparum 3D7 parasites; experiment: P. falciparum growth inhibition assay, 2-cycle (120 h treatment), delayed-death screen and dose-response; type: cell-based, Plasmodium falciparum
[2] = tested on: P. falciparum 3D7 parasites; experiment: P. falciparum growth inhibition assay, 1-cycle (72 h treatment), SYBR DNA staining (library screen at 2 μg/mL and dose-response); type: cell-based, Plasmodium falciparum
[3] = tested on: T. gondii RH strain (RH-Tub-eYFP) tachyzoites; experiment: microbe, parasite or virus in culture; type: cell-based, Toxoplasma gondii; settings: 72 h; for percent parasite growth at 2 µg/mL: Toxoplasma gondii
[4] = P. falciparum 3D7, 120 h, parasite screen at 2 μg/mL, % growth, replicate 1
[5] = P. falciparum 3D7, 120 h, parasite screen at 2 μg/mL, % growth, replicate 2
[6] = P. falciparum 3D7, 72 h, parasite screen at 2 μg/mL, % growth, replicate 1
[7] = P. falciparum 3D7, 72 h, parasite screen at 2 μg/mL, % growth, replicate 2
[8] = T. gondii, parasite screen at 2 μg/mL, % growth, replicate 1
[9] = T. gondii, parasite screen at 2 μg/mL, % growth, replicate 2
[10] = P. falciparum, 120 h, parasite screen 2 μg/mL, % growth, replicate 1
[11] = P. falciparum, 120 h, parasite screen 2 μg/mL, % growth, replicate 2
[12] = P. falciparum, 72 h, parasite screen 2 μg/mL, % growth, replicate 1
[13] = P. falciparum, 72 h, parasite screen 2 μg/mL, % growth, replicate 2
[14] = T. gondii, 2 μg/mL, values are growth (% of control)
[15] = T. gondii, parasite screen 2 μg/mL, % growth, replicate 1
[16] = T. gondii, parasite screen 2 μg/mL, % growth, replicate 2
[17] = Plasmodium falciparum, 3D7, P. falciparum, 120 h, screen at 2 μg/mL, replicate 1, read-out: Pf_120h_%Growth_Rep1
[18] = Plasmodium falciparum, 3D7, P. falciparum, 120 h, screen at 2 μg/mL, replicate 2, read-out: Pf_120h_%Growth_Rep2
[19] = Plasmodium falciparum, 3D7, P. falciparum, 72 h, screen at 2 μg/mL, replicate 1, read-out: Pf_72h_%Growth_Rep1
[20] = Plasmodium falciparum, 3D7, P. falciparum, 72 h, screen at 2 μg/mL, replicate 2, read-out: Pf_72h_%Growth_Rep2
[21] = T. gondii, screen at 2 μg/mL, replicate 1, read-out: Tg_72h_%Growth_Rep1
[22] = T. gondii, screen at 2 μg/mL, replicate 2, read-out: Tg_72h_%Growth_Rep2
[23] = library screen at 2 μg/mL, 120 h, % growth, replicate 1
[24] = library screen at 2 μg/mL, 120 h, % growth, replicate 2
[25] = library screen at 2 μg/mL, 72 h, % growth, replicate 1
[26] = library screen at 2 μg/mL, 72 h, % growth, replicate 2
[27] = library screen at 2 μg/mL, % growth, replicate 1
[28] = library screen at 2 μg/mL, % growth, replicate 2

SMILES: CC1=C[C@H]2O[C@@H]3[C@H](O)[C@@H](O)[C@](C)([C@@]2(CO)[C@H](O)C1=O)[C@]31CO1 [BIA-N1920]
- Pf_120h_%Growth_Rep1 [1, 4]: 18.13%
- Pf_120h_%Growth_Rep2 [1, 5]: 5.74%
- Pf_72h_%Growth_Rep1 [2, 6]: 4.51%
- Pf_72h_%Growth_Rep2 [2, 7]: -2.70%
- Tg_72h_%Growth_Rep1 [3, 8]: 0.21%
- Tg_72h_%Growth_Rep2 [3, 9]: 0.91%

SMILES: Cc1cc2nc3c(=O)[nH]c(=O)nc-3n(C[C@H](O)[C@H](O)[C@H](O)CO)c2cc1N(C)C [Roseoflavin]
- Pf_120h_%Growth_Rep1 [1, 10]: 4.42%
- Pf_120h_%Growth_Rep2 [1, 11]: 7.07%
- Pf_72h_%Growth_Rep1 [2, 12]: 11.70%
- Pf_72h_%Growth_Rep2 [2, 13]: 10.95%
- Mean ([3]; T. gondii, 2 μg/mL, mean of both replicates, growth (% of control)): 28.14
- Replicate 1 [3, 14]: 40.04
- Replicate 2 [3, 14]: 16.23
- Tg_72h_%Growth_Rep1 [3, 15]: 40.04%
- Tg_72h_%Growth_Rep2 [3, 16]: 16.23%

SMILES: CC[C@H]1OC(=O)C[C@@H](O)[C@H](C)[C@@H](O[C@@H]2O[C@H](C)[C@@H](O)[C@H](N(C)C)[C@H]2O)[C@@H](CCN2C[C@H](C)C[C@H](C)C2)C[C@@H](C)C(=O)/C=C/C(C)=C/[C@@H]1CO[C@@H]1O[C@H](C)[C@@H](O)[C@@H](OC)[C@H]1OC [Tilmicosin, reference compound]
- 3) Fold change (72 h/120 h) ([1]; P. falciparum, growth at 72 h / growth at 120 h, 2 μg/mL): 3.0
- activity at 2 µg/mL ([1]; Plasmodium falciparum, 3D7; P. falciparum, 2 μg/mL, 120 h; read-out: 2) Growth (%) at 120 h): 14.5%
- activity at 2 µg/mL [1, 17]: 22.4%
- activity at 2 µg/mL [1, 18]: 6.63%
- activity at 2 µg/mL ([2]; Plasmodium falciparum, 3D7; P. falciparum, 2 μg/mL, 72 h; read-out: 1) Growth (%) at 72 h): 43.1%
- activity at 2 µg/mL [2, 19]: 45%
- activity at 2 µg/mL [2, 20]: 41.2%
- percent parasite growth at 2 µg/mL [3, 21]: 48.2%
- percent parasite growth at 2 µg/mL [3, 22]: 37.2%

SMILES: C[C@H]1C(=O)N2c3ccccc3[C@@]3(O)C[C@@H](n4cnc5ccccc5c4=O)C(=O)N1[C@@H]23 [Chaetominine]
- Pf_120h_%Growth_Rep1 ([1]; P. falciparum, 120 h, screen at 2 μg/mL, replicate 1): 101.17%
- Pf_120h_%Growth_Rep2 ([1]; P. falciparum, 120 h, screen at 2 μg/mL, replicate 2): 95.94%
- Pf_72h_%Growth_Rep1 ([2]; P. falciparum, 72 h, screen at 2 μg/mL, replicate 1): 81.47%
- Pf_72h_%Growth_Rep2 ([2]; P. falciparum, 72 h, screen at 2 μg/mL, replicate 2): 84.79%
- Tg_72h_%Growth_Rep1 ([3]; T. gondii, screen at 2 μg/mL, replicate 1): 140.61%
- Tg_72h_%Growth_Rep2 ([3]; T. gondii, screen at 2 μg/mL, replicate 2): 97.41%

SMILES: C=CC(C)(C)C12CC3C(=O)Nc4ccccc4C(=O)N3C1Nc1ccccc12 (stereo not drawn) [Aszonalenin]
- Pf_120h_%Growth_Rep1 [1, 23]: 90.27%
- Pf_120h_%Growth_Rep2 [1, 24]: 94.67%
- Pf_72h_%Growth_Rep1 [2, 25]: 81.55%
- Pf_72h_%Growth_Rep2 [2, 26]: 89.57%
- Tg_72h_%Growth_Rep1 [3, 27]: 156.81%
- Tg_72h_%Growth_Rep2 [3, 28]: 98.02%

SMILES: O=C1c2c(O)cc(O)cc2OC1(O)Cc1ccc(O)c(O)c1 (stereo not drawn) [Alphitonin]
- Pf_120h_%Growth_Rep1 [1]: 96.34%
- Pf_120h_%Growth_Rep2 [1, 24]: 94.83%
- Pf_72h_%Growth_Rep1 [2, 25]: 88.31%
- Pf_72h_%Growth_Rep2 [2, 26]: 93.84%
- Tg_72h_%Growth_Rep1 [3, 27]: 106.55%
- Tg_72h_%Growth_Rep2 [3, 28]: 96.34%

SMILES: C[C@@H]1C[C@H]2O[C@@H]2/C=C\C=C\C(=O)Cc2c(Cl)c(O)cc(O)c2C(=O)O1 [Radicicol]
- activity at 2 µg/mL ([1]; Plasmodium falciparum, 3D7, P. falciparum, 120 h, parasite screen 2 μg/mL, % growth, replicate 1, read-out: Pf_120h_%Growth_Rep1): 64.2%
- activity at 2 µg/mL ([1]; Plasmodium falciparum, 3D7, P. falciparum, 120 h, parasite screen 2 μg/mL, % growth, replicate 2, read-out: Pf_120h_%Growth_Rep2): 55%
- activity at 2 µg/mL ([2]; Plasmodium falciparum, 3D7, P. falciparum, 72 h, parasite screen 2 μg/mL, % growth, replicate 1, read-out: Pf_72h_%Growth_Rep1): 57.5%
- activity at 2 µg/mL ([2]; Plasmodium falciparum, 3D7, P. falciparum, 72 h, parasite screen 2 μg/mL, % growth, replicate 2, read-out: Pf_72h_%Growth_Rep2): 42.5%
- percent parasite growth at 2 µg/mL ([3]; T. gondii, parasite screen 2 μg/mL, % growth, replicate 1, read-out: Tg_72h_%Growth_Rep1): 52.9%
- percent parasite growth at 2 µg/mL ([3]; T. gondii, parasite screen 2 μg/mL, % growth, replicate 2, read-out: Tg_72h_%Growth_Rep2): 57.6%

SMILES: CO[C@@H]1[C@@H](OC(N)=O)[C@@H](O)[C@H](Oc2ccc3c(O)c(NC(=O)c4ccc(O)c(CC=C(C)C)c4)c(=O)oc3c2C)OC1(C)C [BIA-N1306]
- Pf_120h_%Growth_Rep1 [1, 4]: 15.07%
- Pf_120h_%Growth_Rep2 [1, 5]: 13.28%
- Pf_72h_%Growth_Rep1 [2, 6]: 77.54%
- Pf_72h_%Growth_Rep2 [2, 7]: 85.29%
- Tg_72h_%Growth_Rep1 [3, 8]: 9.17%
- Tg_72h_%Growth_Rep2 [3, 9]: 93.65%

SMILES: C/C=C/C/C=C/CCC(=O)[C@H]1O[C@H]1C(N)=O [Cerulenin]
- activity at 2 µg/mL [1, 17]: 137%
- activity at 2 µg/mL [1, 18]: 85.1%
- activity at 2 µg/mL [2, 19]: 86.4%
- activity at 2 µg/mL [2, 20]: 80.4%
- percent parasite growth at 2 µg/mL [3, 21]: 79%
- percent parasite growth at 2 µg/mL [3, 22]: 81.8%

SMILES: C[C@@H]1CC[C@H](O)/C=C/C(=O)O[C@H](C)CC[C@H](O)/C=C/C(=O)O1 [Pyrenophorol]
- Pf_120h_%Growth_Rep1 [1, 10]: 102.30%
- Pf_120h_%Growth_Rep2 [1, 11]: 75.99%
- Pf_72h_%Growth_Rep1 [2, 12]: 90.24%
- Pf_72h_%Growth_Rep2 [2, 13]: 103.36%
- Tg_72h_%Growth_Rep1 [3, 15]: 105.85%
- Tg_72h_%Growth_Rep2 [3, 16]: 74.43%

SMILES: C[C@@H](O)[C@H]1C(=O)N2C(C(=O)[O-])=C(SC3Cn4cnc[n+]4C3)[C@H](C)[C@H]12 (stereo partly drawn) [Biapenem]
- activity at 2 µg/mL ([1]; Plasmodium falciparum, 3D7, library screen at 2 μg/mL, 120 h, % growth, replicate 1, read-out: Pf_120h_%Growth_Rep1): 85.6%
- activity at 2 µg/mL ([1]; Plasmodium falciparum, 3D7, library screen at 2 μg/mL, 120 h, % growth, replicate 2, read-out: Pf_120h_%Growth_Rep2): 79.2%
- activity at 2 µg/mL ([2]; Plasmodium falciparum, 3D7, library screen at 2 μg/mL, 72 h, % growth, replicate 1, read-out: Pf_72h_%Growth_Rep1): 84.2%
- activity at 2 µg/mL ([2]; Plasmodium falciparum, 3D7, library screen at 2 μg/mL, 72 h, % growth, replicate 2, read-out: Pf_72h_%Growth_Rep2): 84.8%
- percent parasite growth at 2 µg/mL ([3]; library screen at 2 μg/mL, % growth, replicate 1, read-out: Tg_72h_%Growth_Rep1): 116%
- percent parasite growth at 2 µg/mL ([3]; library screen at 2 μg/mL, % growth, replicate 2, read-out: Tg_72h_%Growth_Rep2): 95.1%

SMILES: CCCCCCCCCCCCCCCc1cc(O)cc(O)c1 [Adipostatin A]
- Pf_120h_%Growth_Rep1 [1, 23]: 83.04%
- Pf_120h_%Growth_Rep2 [1, 24]: 100.82%
- Pf_72h_%Growth_Rep1 [2, 25]: 85.82%
- Pf_72h_%Growth_Rep2 [2, 26]: 88.98%
- Tg_72h_%Growth_Rep1 [3, 27]: 103.30%
- Tg_72h_%Growth_Rep2 [3, 28]: 96.65%

SMILES: CC1(C)C=Cc2c(ccc3ccc(=O)oc23)O1 [Seselin]
- Pf_120h_%Growth_Rep1 [1, 10]: 59.04%
- Pf_120h_%Growth_Rep2 [1, 11]: 133.69%
- Pf_72h_%Growth_Rep1 [2, 12]: 72.86%
- Pf_72h_%Growth_Rep2 [2, 13]: 126.42%
- Tg_72h_%Growth_Rep1 [3, 15]: 115.94%
- Tg_72h_%Growth_Rep2 [3, 16]: 77.58%

SMILES: CCCC(=O)OC1C(C)OC(OC2C(C)OC(OC3C(CC=O)CC(C)C(O)C=CC=CCC(C)OC(=O)CC(O)C3OC)C(O)C2N(C)C)CC1(C)O (stereo not drawn) [BIA-L1357]
- Pf_120h_%Growth_Rep1 ([1]; P. falciparum 3D7, 120 h, library screen at 2 μg/mL, % growth, replicate 1): 3.21%
- Pf_120h_%Growth_Rep2 ([1]; P. falciparum 3D7, 120 h, library screen at 2 μg/mL, % growth, replicate 2): 21.14%
- Pf_72h_%Growth_Rep1 ([2]; P. falciparum 3D7, 72 h, library screen at 2 μg/mL, % growth, replicate 1): 53.81%
- Pf_72h_%Growth_Rep2 ([2]; P. falciparum 3D7, 72 h, library screen at 2 μg/mL, % growth, replicate 2): 78.28%
- Tg_72h_%Growth_Rep1 ([3]; T. gondii RH, library screen at 2 μg/mL, % growth, replicate 1): 30.88%
- Tg_72h_%Growth_Rep2 ([3]; T. gondii RH, library screen at 2 μg/mL, % growth, replicate 2): 21.24%
